# Source: publication PMC8956739, “A synthetic lipopeptide targeting top-priority multidrug-resistant Gram-negative pathogens” (Nature Communications, 2022)
# Values joined by “and” are separate entries in the source; they are usually repeats but may differ in a detail not shown here. Identical values can stand only once. Residues, ends and D or L forms follow the SMILES beside them.
# Columns and labels:
# P. aeruginosa ATCC 27853 [1] = assay: Neutropenic mouse bloodstream infection model; format: in vivo; settings: single IV dose 4 mg/kg; for Log10 CFU/mL blood at 4 h, Mean / Δlog10 CFU/mL blood (mean) / Log10 CFU/mL blood at 4 h, single mouse: 4 h; for Δlog10 CFU/mL blood (mean): treated minus control, mean of replicates; for Δlog10 CFU/mL blood (mean) / Log10 CFU/mL blood at 4 h, single mouse / Delta Log10 CFU/mL blood at 4 h, single mouse: 4 mg/kg; for Delta Log10 CFU/mL blood at 4 h, single mouse: treated mouse minus mean of vehicle mice
# Experimental: The experimental methodology for the neutropenic mouse bloodstream infection model was described previously. Briefly, 7-week-old female Swiss mice (22–28 g) were rendered neutropenic by intraperitoneal administration of cyclophosphamide, 4 days (150 mg/kg) and 1 day (100 mg/kg) prior to inoculation. Bloodstream infection was established by intravenous administration of a 50 µL bolus of early log-phase bacterial suspension (4 × 10^8 CFU/mL). Lipopeptide solutions were prepared at 1 mg/mL (free base) in sterile saline. At 2 h after inoculation, mice (n = 3) were injected intravenously with lipopeptide solution at 4 mg/kg (free base) or saline control. At 0 and 4 h after administration, blood was collected, diluted serially in sterile saline, and plated on nutrient agar plates. Agar plates were incubated at 37 °C overnight for bacterial colony counting and the bacterial load in the blood (log10 CFU/mL) in each mouse was calculated. In vivo efficacy was calculated as the difference of the log10 CFU/mL blood values between the treated mice and the saline-treated mice at 4 h post dosing (Δlog10 CFU/mL blood = log10 [treated] CFU/mL blood − log10[control] CFU/mL blood).
# Swiss mice, kidney = assay: Nephrotoxicity in mice (kidney histopathology); format: in vivo, mouse; settings: for Kidney histopathology (SQS Score): 72 mg/kg/d subcutaneously in six divided doses every 2 h, n = 3; for Kidney histopathology, mice with the SQS score: mouse, in vivo
# Experimental: The experimental methodology has been previously reported by our group. Briefly, individual lipopeptide solutions were prepared in sterile saline (6 mg/mL). Swiss mice (female, 7-week-old, 22–28 g) were subcutaneously administered at 12 mg/kg in, 6 doses every 2 h to reach a total dose of 72 mg/kg (n = 3). For high-dose nephrotoxicity experiments, mice were intraperitoneally administered at 20 or 25 mg/kg, in 6 doses every 2 h to reach a total dose of 120 mg/kg (n = 6) or 150 mg/kg (n = 3). At 20 h after the last dose, the right kidney from each mouse was collected and placed in 10% buffered (pH 7.4) formalin (Sigma-Aldrich, Castle Hill, NSW, Australia). The kidneys were subjected to histological examination at the Australian Phenomics Network-Histopathology and Organ Pathology (University of Melbourne, Parkville, VIC, Australia), who was blind to the treatment groups.
# A. baumannii ATCC 19606 = format: cell-based, Acinetobacter baumannii; settings: ATCC 19606
# Experimental: (§1) MICs were determined in cation-adjusted Mueller–Hinton broth (CaMHB) by the broth micro-dilution method against ATCC strains and clinical isolates. MICs in the presence of Survanta® were determined as described above against P. aeruginosa ATCC 27853. In the 100 μL of fresh CaMHB containing polymyxins, 10% Survanta® (v/v, 2.5 mg/mL phospholipids) was added. MICs in the presence and absence of Survanta® were compared to determine the effect of binding to lung surfactant on the antibacterial activity of polymyxins.
# A. baumannii FADDI-AB030 = format: cell-based, Acinetobacter baumannii; settings: FADDI-AB030
# Experimental: as §1
# A. baumannii FADDI-AB034 = format: cell-based, Acinetobacter baumannii; settings: FADDI-AB034
# Experimental: as §1
# P. aeruginosa ATCC 27853 [2] = format: cell-based, Pseudomonas aeruginosa; settings: ATCC 27853
# Experimental: as §1
# [3] = test system: P. aeruginosa FADDI-PA025; format: cell-based, Pseudomonas aeruginosa; settings: FADDI-PA025
# Experimental: as §1
# [4] = test system: P. aeruginosa FADDI-PA038; format: cell-based, Pseudomonas aeruginosa; settings: FADDI-PA038
# Experimental: as §1
# [5] = test system: K. pneumoniae FADDI-KP032; format: cell-based, Klebsiella pneumoniae; settings: FADDI-KP032
# Experimental: as §1
# [6] = test system: K. pneumoniae FADDI-KP065; format: cell-based, Klebsiella pneumoniae; settings: FADDI-KP065
# Experimental: as §1
Structure (SMILES),"Log10 CFU/mL blood at 4 h, Mean (P. aeruginosa ATCC 27853 [1]) [Log10 CFU/mL blood]",Δlog10 CFU/mL blood (mean) (P. aeruginosa ATCC 27853 [1]) [log10 CFU/mL blood],"Log10 CFU/mL blood at 4 h, single mouse (P. aeruginosa ATCC 27853 [1])","Delta Log10 CFU/mL blood at 4 h, single mouse (P. aeruginosa ATCC 27853 [1])","Kidney histopathology (SQS Score) (Swiss mice, kidney)","Kidney histopathology, mice with the SQS score (Swiss mice, kidney)",MIC A. baumannii ATCC 19606 (A. baumannii ATCC 19606) [µg/mL],MIC A. baumannii FADDI-AB030 (A. baumannii FADDI-AB030) [µg/mL],MIC A. baumannii FADDI-AB034 (A. baumannii FADDI-AB034) [µg/mL],MIC P. aeruginosa ATCC 27853 (P. aeruginosa ATCC 27853 [2]) [µg/mL],MIC P. aeruginosa FADDI-PA025 [3] [µg/mL],MIC P. aeruginosa FADDI-PA038 [4] [µg/mL],MIC K. pneumoniae FADDI-KP032 [5] [µg/mL],MIC K. pneumoniae FADDI-KP065 [6] [µg/mL]
"CCCCCCCC(=O)N[C@@H](CCN)C(=O)N[C@H](C(=O)N[C@@H](CCN)C(=O)N[C@H]1CCNC(=O)[C@H]([C@@H](C)O)NC(=O)[C@H](CCN)NC(=O)[C@H](CCN)NC(=O)[C@H](C)NC(=O)[C@@H](CC(C)C)NC(=O)[C@H](CCN)NC1=O)[C@@H](C)O [Lipopeptide F124] (HELM PEPTIDE1{[CCCCCCCC(=O)[*:2]].[Dab].T.[Dab].[Dab].[Dab].[dL].A.[Dab].[Dab].T}$PEPTIDE1,PEPTIDE1,5:R3-11:R2$$$V2.0)",4.53,−2.92,4.71 Log10 CFU/mL blood and 4.61 Log10 CFU/mL blood and 4.26 Log10 CFU/mL blood,-2.74 Log10 CFU/mL blood and -2.83 Log10 CFU/mL blood and -3.19 Log10 CFU/mL blood,"0 (SQS 0 = no significant change (overall score, <1))",3/3,1,1,0.5,0.5,>32,0.5,0.25,<0.125
"CCCCCCCC(=O)N[C@@H](CCN)C(=O)N[C@H](C(=O)N[C@@H](CCN)C(=O)N[C@H]1CCNC(=O)[C@H]([C@@H](C)O)NC(=O)[C@H](CCN)NC(=O)[C@H](CCN)NC(=O)[C@H]([C@@H](C)O)NC(=O)[C@@H](Cc2ccccc2)NC(=O)[C@H](CCN)NC1=O)[C@@H](C)O [Lipopeptide F224] (HELM PEPTIDE1{[CCCCCCCC(=O)[*:2]].[Dab].T.[Dab].[Dab].[Dab].[dF].T.[Dab].[Dab].T}$PEPTIDE1,PEPTIDE1,5:R3-11:R2$$$V2.0)",4.07,−3.38,4.08 Log10 CFU/mL blood and 4.03 Log10 CFU/mL blood and 4.10 Log10 CFU/mL blood,-3.37 Log10 CFU/mL blood and -3.42 Log10 CFU/mL blood and -3.35 Log10 CFU/mL blood,"0 (SQS 0 = no significant change (overall score, <1))",3/3,1,0.25,0.5,1,16,0.5,0.5,<0.125
"CCCCCCCC(=O)N[C@@H](CCN)C(=O)N[C@H](C(=O)N[C@@H](CCN)C(=O)N[C@H]1CCNC(=O)[C@H]([C@@H](C)O)NC(=O)[C@H](CCN)NC(=O)[C@H](CCN)NC(=O)[C@H](C(C)C)NC(=O)[C@@H](CC(C)C)NC(=O)[C@H](CCN)NC1=O)[C@@H](C)O [Lipopeptide F225] (HELM PEPTIDE1{[CCCCCCCC(=O)[*:2]].[Dab].T.[Dab].[Dab].[Dab].[dL].V.[Dab].[Dab].T}$PEPTIDE1,PEPTIDE1,5:R3-11:R2$$$V2.0)",4.59,−2.86,4.22 Log10 CFU/mL blood and 4.78 Log10 CFU/mL blood (2×),-3.23 Log10 CFU/mL blood and -2.67 Log10 CFU/mL blood (2×),"0 (SQS 0 = no significant change (overall score, <1))",3/3,0.5,0.25,0.25,1,4,1,<0.125,<0.125
"CCCCCCCC(=O)N[C@@H](CCN)C(=O)N[C@H](C(=O)N[C@@H](CCN)C(=O)N[C@H]1CCNC(=O)[C@H]([C@@H](C)O)NC(=O)[C@H](CCN)NC(=O)[C@H](CCN)NC(=O)[C@H]([C@@H](C)O)NC(=O)[C@@H](CCCC)NC(=O)[C@H](CCN)NC1=O)[C@@H](C)O [Lipopeptide F226] (HELM PEPTIDE1{[CCCCCCCC(=O)[*:2]].[Dab].T.[Dab].[Dab].[Dab].[CCCC[C@@H](N[*:1])C(=O)[*:2]].T.[Dab].[Dab].T}$PEPTIDE1,PEPTIDE1,5:R3-11:R2$$$V2.0)",4.20,−3.24,4.01 Log10 CFU/mL blood and 4.55 Log10 CFU/mL blood and 4.05 Log10 CFU/mL blood,-3.43 Log10 CFU/mL blood and -2.90 Log10 CFU/mL blood and -3.40 Log10 CFU/mL blood,"+1 (SQS + 1 = mild damage (overall score, 1 to <15))",1/3,2,0.5,1,1,16,1,<0.125,<0.125
"CCCCCCCC(=O)N[C@@H](CCN)C(=O)N[C@H](C(=O)N[C@@H](CCN)C(=O)N[C@H]1CCNC(=O)[C@H]([C@@H](C)O)NC(=O)[C@H](CCN)NC(=O)[C@H](CCN)NC(=O)[C@H](CO)NC(=O)[C@@H](CC(C)C)NC(=O)[C@H](CCN)NC1=O)[C@@H](C)O [Lipopeptide F227] (HELM PEPTIDE1{[CCCCCCCC(=O)[*:2]].[Dab].T.[Dab].[Dab].[Dab].[dL].S.[Dab].[Dab].T}$PEPTIDE1,PEPTIDE1,5:R3-11:R2$$$V2.0)",6.47,−1.04,6.74 Log10 CFU/mL blood and 5.57 Log10 CFU/mL blood and 7.10 Log10 CFU/mL blood,-0.77 Log10 CFU/mL blood and -1.95 Log10 CFU/mL blood and -0.41 Log10 CFU/mL blood,"0 (SQS 0 = no significant change (overall score, <1))",3/3,8,4,4,0.5,>32,>32,0.25,0.25
